Target: truncated variant of M. xanthus ParB (NB and DNA-binding domains) (Myxococcus xanthus, UniProt Q1CVJ4)
Conditions: formed from CTPγS in crystallization; Mg2+; with thiophosphate; pH 8.5

Question: For `Nc1ccn([C@@H]2O[C@H](COP(=O)(O)OP(=O)(O)O)[C@@H](O)[C@H]2O)c(=O)n1` [CDP], which “X-ray crystal structure (1.9 Å)” value is on record?
Answer: The value was “we did not detect CTPγS but CDP”.

From publication doi:10.1101/2021.05.05.442810v1 (biorxiv, 2021)
